Experiments:
MDA-MB-468 = test: Growth inhibition of human MDA-MB-468 cells assessed as cell growth at 10 uM after 48 hrs by sulforhodamine B assay; assay type: functional; conditions: MDA-MB-468, 48 h, read-out: Activity
TK-10 = test: Growth inhibition of human TK10 cells assessed as cell growth at 10 uM after 48 hrs by sulforhodamine B assay; assay type: functional; conditions: TK-10, 48 h, read-out: Activity
CAKI-1 [1] = test: Growth inhibition of human CAKI-1 cells assessed as cell growth at 10 uM after 48 hrs by sulforhodamine B assay; assay type: functional; conditions: CAKI-1, 48 h, read-out: Activity
SW-620 = test: Growth inhibition of human SW620 cells after 48 hrs by sulforhodamine B assay; assay type: functional; conditions: SW-620, 48 h; for CC50: read-out: LC50 (the source's name)
NCI-H522 [2] = test: Growth inhibition of human NCI-H522 cells after 48 hrs by sulforhodamine B assay; assay type: functional; conditions: NCI-H522, 48 h
OVCAR-8 = test: Growth inhibition of human OVCAR8 cells assessed as cell growth at 10 uM after 48 hrs by sulforhodamine B assay; assay type: functional; conditions: OVCAR-8, 48 h, read-out: Activity
[3] = Growth inhibition of human HCC2998 cells assessed as cell growth at 10 uM after 48 hrs by sulforhodamine B assay; assay type: functional; conditions: HCC 2998, 48 h, read-out: Activity
NCI-H522 [4] = test: Growth inhibition of human NCI-H522 cells assessed as cell growth at 10 uM after 48 hrs by sulforhodamine B assay; assay type: functional; conditions: NCI-H522, 48 h, read-out: Activity
NCI-H460 = test: Growth inhibition of human NCI-H460 cells assessed as cell growth at 10 uM after 48 hrs by sulforhodamine B assay; assay type: functional; conditions: NCI-H460, 48 h, read-out: Activity
UO-31 = test: Growth inhibition of human UO31 cells after 48 hrs by sulforhodamine B assay; assay type: functional; conditions: UO-31, 48 h; for CC50: read-out: LC50 (the source's name)
CAKI-1 [5] = test: Growth inhibition of human CAKI-1 cells after 48 hrs by sulforhodamine B assay; assay type: functional; conditions: CAKI-1, 48 h; for CC50: read-out: LC50 (the source's name)
786-0 = test: Growth inhibition of human 786-0 cells after 48 hrs by sulforhodamine B assay; assay type: functional; conditions: 786-0, 48 h; for CC50: read-out: LC50 (the source's name)
OVCAR-3 = test: Growth inhibition of human OVCAR3 cells after 48 hrs by sulforhodamine B assay; assay type: functional, cell-based; conditions: OVCAR-3, 48 h; for CC50: read-out: LC50 (the source's name)

Compound	growth at 10 µM (MDA-MB-468) [%]	growth at 10 µM (TK-10) [%]	growth at 10 µM (CAKI-1 [1]) [%]	GI50 (SW-620) [µM]	TGI (SW-620) [µM]	CC50 (SW-620) [µM]	GI50 (NCI-H522 [2]) [µM]	LC50 (concentration killing 50% of cells) (NCI-H522 [2]) [µM]	TGI (NCI-H522 [2]) [µM]	growth at 10 µM (OVCAR-8) [%]	growth at 10 µM [3] [%]	growth at 10 µM (NCI-H522 [4]) [%]	growth at 10 µM (NCI-H460) [%]	GI50 (UO-31) [µM]	TGI (UO-31) [µM]	CC50 (UO-31) [µM]	GI50 (CAKI-1 [5]) [µM]	TGI (CAKI-1 [5]) [µM]	CC50 (CAKI-1 [5]) [µM]	GI50 (786-0) [µM]	further results
COc1cc(-c2nn(-c3cccc(NC(=O)c4ccc(N5CCOCC5)c(C(F)(F)F)c4)c3)cc2-c2ccncc2)ccc1Cl	-37.8	17.8	39.9	0.241	> 100	> 100	0.107	> 100	3.53	5.23	8.82	0.2	5.02	0.289	7.53	> 100	0.36	8.12	> 100	0.819	CC50 (786-0): > 100 µM; GI50 (OVCAR-3): 0.222 µM; IC50 (OVCAR-3): 0.22 µM; TGI (OVCAR-3): 1.03 µM; CC50 (OVCAR-3): > 100 µM
COc1cc(-c2nn(-c3cccc(NC(=O)c4ccc(Br)c(C)c4)c3)cc2-c2ccncc2)ccc1Cl	83.5	91.3	86.8							77.3	88.2	45.1	80.9								
COc1cc(-c2nn(-c3cccc(NC(=O)c4ccccc4)c3)cc2-c2ccncc2)ccc1Cl	-19.7	31	40.6	0.551	> 100	> 100	0.317	> 100	> 100	19.6	20.1	-29.6	2.74	0.638	> 100	> 100	1.16	> 100	> 100	1.52	TGI (786-0): > 100 µM; CC50 (786-0): > 100 µM; GI50 (OVCAR-3): 0.334 µM; IC50 (OVCAR-3): 0.33 µM; TGI (OVCAR-3): 10.9 µM; CC50 (OVCAR-3): 95.8 µM
COc1cc(-c2nn(-c3cccc(NC(=O)c4ccc(Cl)c(C(F)(F)F)c4)c3)cc2-c2ccncc2)ccc1Cl	54.4	69.5	61.1	4.75	> 32.5	> 32.5	1.04	> 32.5	13.4	38.9	-8.08	1.5	25.4	0.267	> 32.5	> 32.5	2.3	> 32.5	> 32.5	11	TGI (786-0): > 32.5 µM; CC50 (786-0): > 32.5 µM; GI50 (OVCAR-3): 2.42 µM; IC50 (OVCAR-3): 2.42 µM; TGI (OVCAR-3): 19.8 µM; CC50 (OVCAR-3): > 32.5 µM
O=C(Nc1cccc(-n2cc(-c3ccncc3)c(-c3ccc(Cl)c(O)c3)n2)c1)Nc1ccc(Cl)c(C(F)(F)F)c1	-49.5	-1.62	17.3	1.15	4.16	> 32.5	0.72	24.5	2.5	-41.8		-30	-43.7	0.777	3.01	> 32.5	0.795	2.63	> 32.5	1.28	TGI (786-0): > 32.5 µM; CC50 (786-0): > 32.5 µM; GI50 (OVCAR-3): 0.83 µM; IC50 (OVCAR-3): 0.83 µM; TGI (OVCAR-3): 2.09 µM; CC50 (OVCAR-3): > 32.5 µM
Cc1cc(C(=O)Nc2cccc(-n3cc(-c4ccncc4)c(-c4ccc(Cl)c(O)c4)n3)c2)ccc1Br	93.2	113	93.9							95.1		95.2	108								
O=C(Nc1cccc(-n2cc(-c3ccncc3)c(-c3ccc(Cl)c(O)c3)n2)c1)c1ccc(Cl)c(C(F)(F)F)c1	98.2	119	100							96.8	123	94.4	104								
COc1cc(-c2nn(-c3cccc(NC(=O)Nc4ccc(Cl)c(C(F)(F)F)c4)c3)cc2-c2ccncc2)ccc1Cl	-7.22	12.6	14.7	1.29	29.9	> 32.5	1.14	> 32.5	6.06	-19.9	8.88	-13.9	1.7	0.865	4.1	> 32.5	0.992	4.72	> 32.5	1.61	TGI (786-0): 8.02 µM; CC50 (786-0): > 32.5 µM; GI50 (OVCAR-3): 0.889 µM; IC50 (OVCAR-3): 0.89 µM; TGI (OVCAR-3): 2.44 µM; CC50 (OVCAR-3): > 32.5 µM
O=C(Nc1cccc(-n2cc(-c3ccncc3)c(-c3ccc(Cl)c(O)c3)n2)c1)Nc1ccc(Cl)c(Cl)c1	2.25	7.15	22.5	1.46	> 32.5	> 32.5	1.19	> 32.5	10.6	11.7		-6.8	6.5	1.25	> 32.5	> 32.5	1.11	14.3	> 32.5	7.22	TGI (786-0): > 32.5 µM; CC50 (786-0): > 32.5 µM; GI50 (OVCAR-3): 1.05 µM; IC50 (OVCAR-3): 1.05 µM; TGI (OVCAR-3): 3.15 µM; CC50 (OVCAR-3): > 32.5 µM
O=C(Nc1cccc(-n2cc(-c3ccncc3)c(-c3ccc(Cl)c(O)c3)n2)c1)c1ccccc1	64.1	109	90.3							50.9	76.8	42.3	48.7								
COc1cc(-c2nn(-c3cccc(NC(=O)Nc4ccccc4)c3)cc2-c2ccncc2)ccc1Cl	83.4	116	96.1							77.9	119	67.4	93.7								
O=C(Nc1cccc(-n2cc(-c3ccncc3)c(-c3ccc(Cl)c(O)c3)n2)c1)Nc1cccc(C(F)(F)F)c1	10.5	21.9	30.1	3.83	> 32.5	> 32.5	1.46	> 32.5	14.5	10.6	40.1	-10.8	7.29	1.86	> 32.5	> 32.5	1.75	> 32.5	> 32.5	4.69	TGI (786-0): > 32.5 µM; CC50 (786-0): > 32.5 µM; GI50 (OVCAR-3): 1.06 µM; IC50 (OVCAR-3): 1.06 µM; TGI (OVCAR-3): 6.13 µM; CC50 (OVCAR-3): > 32.5 µM

Source: ChEMBL document CHEMBL2440076, “New triarylpyrazoles as broad-spectrum anticancer agents: design, synthesis, and biological evaluation” (Eur J Med Chem, 2013)
